According to ChEMBL document CHEMBL1201862, “PubChem BioAssay data set” (2004):
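Each compound was tested at five concentrations against cells in 96-well plates for 48 hours. GI50 = concentration required for 50% inhibition of growth.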 Calls of active or inactive are those of the source. No stated cut-off is given here; in the data, active = GI50 up to about 1.1 µM and inactive = higher.

Assays:
Assay in all cases: DTP human tumour cell line panel, 48 h
A498 = test system: A498
A549 = test system: A549
CCRF-CEM = test system: CCRF-CEM
COLO 205 = test system: COLO 205
DLD-1 = test system: DLD-1
DMS-114 = test system: DMS-114
DMS-273 = test system: DMS-273
EKVX = test system: EKVX
HCT-116 = test system: HCT-116
HCT-15 = test system: HCT-15
HL-60 = test system: HL-60
HOP-18 = test system: HOP-18
HOP-62 = test system: HOP-62
HOP-92 = test system: HOP-92
HT-29 = test system: HT-29
IGROV-1 = test system: IGROV-1
K562 = test system: K562
KM-20L2 = test system: KM-20L2
KM12 = test system: KM12
LOX IMVI = test system: LOX IMVI
M19-MEL = test system: M19-MEL
MCF7 = test system: MCF7
MOLT-4 = test system: MOLT-4
Malme-3M = test system: Malme-3M
NCI-H226 = test system: NCI-H226
NCI-H23 = test system: NCI-H23
NCI-H460 = test system: NCI-H460
NCI-H522 = test system: NCI-H522
NCI/ADR-RES = test system: NCI/ADR-RES
OVCAR-3 = test system: OVCAR-3
OVCAR-4 = test system: OVCAR-4
OVCAR-5 = test system: OVCAR-5
OVCAR-8 = test system: OVCAR-8
RPMI-8226 = test system: RPMI-8226
RXF 393 = test system: RXF 393
SF-268 = test system: SF-268
SF-295 = test system: SF-295
SF-539 = test system: SF-539
SK-MEL-28 = test system: SK-MEL-28
SK-MEL-2 = test system: SK-MEL-2
SK-MEL-5 = test system: SK-MEL-5
SK-OV-3 = test system: SK-OV-3
SN12C = test system: SN12C
SNB-19 = test system: SNB-19
SNB-75 = test system: SNB-75
SNB-78 = test system: SNB-78
SW-620 = test system: SW-620
U-251 = test system: U-251
UACC-257 = test system: UACC-257
UACC-62 = test system: UACC-62
UO-31 = test system: UO-31
XF498 = test system: XF498
786-0 = test system: 786-0
ACHN = test system: ACHN
CAKI-1 = test system: CAKI-1
HCC 2998 = test system: HCC 2998
LXFL 529 = test system: LXFL 529
M14 = test system: M14
SR = test system: SR
TK-10 = test system: TK-10

SMILES: COc1cc(/C=C/C(=O)O)ccc1C(=O)O/C=C/c1ccccc1
- GI50 (A498): > 85.3 µM (inactive)
- GI50 (A549): > 100 µM (inactive)
- GI50 (CCRF-CEM): 60.7 µM (inactive)
- GI50 (COLO 205): > 100 µM (inactive)
- GI50 (DLD-1): > 100 µM (inactive)
- GI50 (DMS-114): > 100 µM (inactive)
- GI50 (DMS-273): > 100 µM (inactive)
- GI50 (EKVX): > 100 µM (inactive)
- GI50 (HCT-116): > 72.8 µM (inactive)
- GI50 (HCT-15): 99.8 µM
- GI50 (HL-60): 45.3 µM (inactive)
- GI50 (HOP-18): > 100 µM (inactive)
- GI50 (HOP-62): > 100 µM (inactive)
- GI50 (HOP-92): > 100 µM (inactive)
- GI50 (HT-29): > 100 µM (inactive)
- GI50 (IGROV-1): > 100 µM (inactive)
- GI50 (K562): > 100 µM (inactive)
- GI50 (KM-20L2): > 100 µM (inactive)
- GI50 (KM12): > 100 µM (inactive)
- GI50 (LOX IMVI): 73.1 µM (inactive)
- GI50 (M19-MEL): > 81.7 µM (inactive)
- GI50 (MCF7): 73.5 µM (inactive)
- GI50 (MOLT-4): 65.9 µM (inactive)
- GI50 (Malme-3M): > 100 µM (inactive)
- GI50 (NCI-H226): > 100 µM (inactive)
- GI50 (NCI-H23): > 100 µM (inactive)
- GI50 (NCI-H460): > 100 µM (inactive)
- GI50 (NCI-H522): > 61.9 µM (inactive)
- GI50 (NCI/ADR-RES): > 100 µM (inactive)
- GI50 (OVCAR-3): > 100 µM (inactive)
- GI50 (OVCAR-4): > 100 µM (inactive)
- GI50 (OVCAR-5): > 100 µM (inactive)
- GI50 (OVCAR-8): > 67.5 µM (inactive)
- GI50 (RPMI-8226): > 100 µM (inactive)
- GI50 (RXF 393): > 100 µM (inactive)
- GI50 (SF-268): > 100 µM (inactive)
- GI50 (SF-295): > 100 µM (inactive)
- GI50 (SF-539): > 100 µM (inactive)
- GI50 (SK-MEL-28): > 100 µM (inactive)
- GI50 (SK-MEL-2): > 100 µM (inactive)
- GI50 (SK-MEL-5): > 100 µM (inactive)
- GI50 (SK-OV-3): > 100 µM (inactive)
- GI50 (SN12C): > 100 µM (inactive)
- GI50 (SNB-19): > 100 µM (inactive)
- GI50 (SNB-75): 67 µM (inactive)
- GI50 (SNB-78): > 100 µM (inactive)
- GI50 (SW-620): > 100 µM (inactive)
- GI50 (U-251): > 100 µM (inactive)
- GI50 (UACC-257): > 100 µM (inactive)
- GI50 (UACC-62): > 100 µM (inactive)
- GI50 (UO-31): > 66.7 µM (inactive)
- GI50 (XF498): > 100 µM (inactive)

SMILES: O=S1(=O)C[C@H](O)[C@H](O)CS1
- GI50 (786-0): > 100 µM (inactive)
- GI50 (A498): > 100 µM (inactive)
- GI50 (A549): > 100 µM (inactive)
- GI50 (ACHN): > 100 µM (inactive)
- GI50 (CAKI-1): > 100 µM (inactive)
- GI50 (COLO 205): > 100 µM (inactive)
- GI50 (DLD-1): > 100 µM (inactive)
- GI50 (DMS-114): > 100 µM (inactive)
- GI50 (DMS-273): > 100 µM (inactive)
- GI50 (EKVX): > 100 µM (inactive)
- GI50 (HCC 2998): > 100 µM (inactive)
- GI50 (HCT-116): > 100 µM (inactive)
- GI50 (HL-60): > 100 µM (inactive)
- GI50 (HOP-18): > 100 µM (inactive)
- GI50 (HOP-62): > 100 µM (inactive)
- GI50 (HOP-92): > 100 µM (inactive)
- GI50 (HT-29): > 100 µM (inactive)
- GI50 (IGROV-1): > 100 µM (inactive)
- GI50 (K562): > 100 µM (inactive)
- GI50 (KM-20L2): > 100 µM (inactive)
- GI50 (KM12): > 100 µM (inactive)
- GI50 (LOX IMVI): > 100 µM (inactive)
- GI50 (LXFL 529): > 100 µM (inactive)
- GI50 (M14): > 100 µM (inactive)
- GI50 (M19-MEL): > 100 µM (inactive)
- GI50 (MOLT-4): > 100 µM (inactive)
- GI50 (Malme-3M): > 100 µM (inactive)
- GI50 (NCI-H226): > 100 µM (inactive)
- GI50 (NCI-H23): > 100 µM (inactive)
- GI50 (NCI-H460): > 100 µM (inactive)
- GI50 (NCI-H522): > 100 µM (inactive)
- GI50 (OVCAR-3): > 100 µM (inactive)
- GI50 (OVCAR-4): > 100 µM (inactive)
- GI50 (OVCAR-5): > 100 µM (inactive)
- GI50 (OVCAR-8): > 100 µM (inactive)
- GI50 (RPMI-8226): > 100 µM (inactive)
- GI50 (RXF 393): > 100 µM (inactive)
- GI50 (SF-268): > 100 µM (inactive)
- GI50 (SF-295): > 100 µM (inactive)
- GI50 (SF-539): > 100 µM (inactive)
- GI50 (SK-MEL-28): > 100 µM (inactive)
- GI50 (SK-MEL-5): > 100 µM (inactive)
- GI50 (SK-OV-3): > 100 µM (inactive)
- GI50 (SN12C): > 100 µM (inactive)
- GI50 (SNB-19): > 100 µM (inactive)
- GI50 (SNB-75): > 100 µM (inactive)
- GI50 (SNB-78): > 100 µM (inactive)
- GI50 (SR): > 100 µM (inactive)
- GI50 (SW-620): > 100 µM (inactive)
- GI50 (TK-10): > 100 µM (inactive)
- GI50 (U-251): > 100 µM (inactive)
- GI50 (UACC-257): > 100 µM (inactive)
- GI50 (UACC-62): > 100 µM (inactive)
- GI50 (UO-31): > 100 µM (inactive)
- GI50 (XF498): > 100 µM (inactive)
